Assay results reported in ChEMBL document CHEMBL6178013, “Ferroptosis of Cancer Cells via Tubulin Degradation and Mitochondrial Dysfunction: A Novel Mechanism of Anticancer Effect for Small-Molecule Anion Transporters” (J Med Chem, 2025).
Calls of active or inactive are those of the source. The calls are words filed in the database; no cut-off is given here.

Experiments:
Chloride [1] = assay: Binding affinity to chloride anions assessed as chloride efflux in egg-yolk L-alpha-phosphatidylcholine liposome model harboring intravesicular CsCl/extravesicular NaNO3
HeLa [2] = assay: Cytotoxicity against human HeLa cells incubated for 48 hrs by MTT assay; type: functional, cell-based
Chloride [3] = assay: Binding affinity to chloride anions assessed as chloride efflux in egg-yolk L-alpha-phosphatidylcholine liposome model harboring intravesicular NaCl/extravesicular NaHCO3
[4] = Half life in male CD-1 mouse at 1 mg/kg, ip measured for 0.083 to 48 hrs by HPLC/MS/MS analysis; type: ADME, organism-based; conditions: in vivo, time 0.083-48 hrs
Chloride [5] = assay: Binding affinity to chloride anions assessed as chloride efflux in egg-yolk L-alpha-phosphatidylcholine liposome model measured per lipid in presence of intravesicular NaCl/extravesicular NaNO3 by chloride ion selective electrode technique
HeLa [6] = assay: Induction of lipid peroxidation in human HeLa cells assessed as increase in ROS generation incubated for 24 hrs by DCFH-DA probe based fluorescence microscopy; type: functional, cell-based; conditions: dose 0.1-1 µM
HeLa [7] = assay: Cytotoxicity against human HeLa cells assessed as decrease in cell viability at 0.01 to 10 uM pretreated with DFO followed by compound addition by MTT assay; type: functional, cell-based; conditions: dose 0.01-10 µM
Chloride [8] = assay: Binding affinity to chloride anions in human HeLa cells assessed as increase in green fluorescence in cytoplasm at 5 uM incubated for 6 hrs by AO staining based analysis; type: cell-based
[9] = Toxicity in male Balb/C nude mouse xenografted with human HeLa cells assessed as abnormalities in heart at 10 to 20 mg/kg, ip administered on every 2 days measured after 18 days by H and E staining based analysis; type: organism-based; conditions: in vivo, 432 h, dose 10-20 mg/kg, time 18 day
HeLa [10] = assay: Cytotoxicity against human HeLa cells assessed as decrease in cell viability at 0.01 to 10 uM pretreated with Fer-1 followed by compound addition by MTT assay; type: functional, cell-based; conditions: dose 0.01-10 µM
[11] = Drug concentration in brain of C57BL/6 mouse at 5 mg/kg, iv measured after 4 hrs by HPLC/MS/MS analysis; type: ADME, organism-based; conditions: read-out: Ct
[12] = Toxicity in male Balb/C nude mouse xenografted with human HeLa cells assessed as abnormalities in brain at 10 to 20 mg/kg, ip administered on every 2 days measured after 18 days by H and E staining based analysis; type: organism-based; conditions: in vivo, 432 h, dose 10-20 mg/kg, time 18 day
Chloride [13] = assay: Binding affinity to chloride anions assessed as chloride efflux in egg-yolk L-alpha-phosphatidylcholine liposome model harboring intravesicular NaCl/extravesicular Na2SO4
HeLa [14] = assay: Effect on ferroptosis pathway in human HeLa cells at 10 uM incubated for 48 hrs by KEGG analysis; type: functional, cell-based
HepG2 = assay: Cytotoxicity against human HepG2 cells incubated for 48 hrs by MTT assay; type: functional, cell-based; conditions: HepG2, 48 h
[15] = Toxicity in male Balb/C nude mouse xenografted with human HeLa cells assessed as abnormalities in liver at 10 to 20 mg/kg, ip administered on every 2 days measured after 18 days by H and E staining based analysis; type: organism-based; conditions: in vivo, 432 h, dose 10-20 mg/kg, time 18 day
HeLa [16] = assay: Antitumor activity against human HeLa cells xenografted in male Balb/C nude mouse assessed as decrease in beta III-tubulin level at 10 to 20 mg/kg, ip administered on every 2 days measured after 18 days by immunoblotting analysis; type: functional, organism-based; conditions: dose 10-20 mg/kg, time 18.0 day
[17] = Cmax in male CD-1 mouse at 1 mg/kg, ip measured for 0.083 to 48 hrs by HPLC/MS/MS analysis; type: ADME, organism-based; conditions: in vivo, time 0.083-48 hrs
HeLa [18] = assay: Induction of cell cycle arrest in human HeLa cells assessed as accumulation of cells at S phase at 0.5 uM incubated for 24 hrs by PI staining based flow cytometry relative to control; type: functional
HeLa [19] = assay: Induction of cell cycle arrest in human HeLa cells assessed as accumulation of cells at S phase at 1 uM incubated for 24 hrs by PI staining based flow cytometry relative to control; type: functional
HeLa [20] = assay: Induction of beta III-tubulin degradation in human HeLa cells incubated for 48 hrs by immunoblotting analysis; type: cell-based; conditions: dose 0.1-1 µM
Chloride [21] = assay: Binding affinity to chloride anions assessed as fold increase in anionophoric activity in egg-yolk L-alpha-phosphatidylcholine liposome model measured per lipid by pyranine-based fluorescent assay relative to m-Bimbe
Chloride [22] = assay: Binding affinity to chloride anions in human HeLa cells assessed as increase in chloride influx at 1 uM measured after 15 mins by flow cytometry; type: cell-based
HeLa [23] = assay: Induction of cell cycle arrest in human HeLa cells assessed as accumulation of cells at S phase at 0.1 uM incubated for 24 hrs by PI staining based flow cytometry relative to control; type: functional
[24] = molecular target: Tubulin alpha (Homo sapiens) (UniProt P0DPH7+P68366+Q71U36+P68363+Q9BQE3+Q6PEY2+A6NHL2+Q9NY65); assay: Induction of alpha-tubulin degradation in human HeLa cells at 1 uM preincubated with MG132 followed by compound addition measured after 24 hrs by immunoblotting analysis; type: cell-based
HeLa [25] = assay: Antitumor activity against human HeLa cells xenografted in male Balb/C nude mouse assessed as cell death at 10 to 20 mg/kg, ip administered on every 2 days measured after 18 days by TUNEL immunofluorescence analysis; type: functional, organism-based; conditions: dose 10-20 mg/kg, time 18.0 day
HeLa [26] = assay: Induction of lipid peroxidation in human HeLa cells assessed as decrease in GSH level incubated for 12 hrs by absorbance based assay; type: functional, cell-based; conditions: dose 0.1-1 µM
Chloride [27] = assay: Binding affinity to chloride anions in human HeLa cells assessed as chloride influx up to 5 uM incubated for 2 hrs by MQAE staining based analysis; type: cell-based
HeLa [28] = assay: Cytotoxicity against human HeLa cells assessed as decrease in cell viability cultured in chloride-free extracellular medium at 0.05 to 5 uM incubated for 12 hrs; type: functional, cell-based; conditions: dose 0.05-5 µM

- Activity (Chloride [1]): Active
- Activity (Chloride [3]): Active
- half-life [4]: 19.9 h
- EC50 (Chloride [5]): 0.64 mol%
- concentration at 4 h [11]: 1300 nM
- Activity (Chloride [13]): inactive
- Cmax [17]: 270 ng/mL
- fold change (FC) (Chloride [21]): 2.32 10^2No_unit
- Activity [24]: inactive
SMILES: Fc1cc(-c2nc3c(C(F)(F)F)cc(C(F)(F)F)cc3[nH]2)cc(-c2nc3c(C(F)(F)F)cc(C(F)(F)F)cc3[nH]2)c1
- IC50 (HeLa [2]): 0.12 µM
- Activity (HeLa [6]): Dose-dependent-effect
- Activity (HeLa [7]): inactive
- Activity (Chloride [8]): Active; The Result Indicates That Compound Basify Acidic Organelles
- Activity [9]: Non-toxic
- Activity (HeLa [10]): inactive
- Activity [12]: Non-toxic
- Activity (HeLa [14]): Active
- IC50 (HepG2): 2.47 µM
- Activity [15]: Non-toxic
- Activity (HeLa [16]): Active
- Activity (HeLa [18]): 36%
- Activity (HeLa [19]): 48%
- Activity (HeLa [20]): Dose-dependent-effect
- Activity (Chloride [22]): inactive
- Activity (HeLa [23]): 22%
- Activity (HeLa [25]): Active
- Activity (HeLa [26]): Dose-dependent-effect
- Activity (Chloride [27]): Active
- Activity (HeLa [28]): inactive
